# From patent US6548544B1, “Method of treatment of priapism without raising systemic blood pressure” (The National University of Singapore, priority 1999, dated 2003)
# What was measured:
# [1] = test system: Pharmacologically Induced Prolonged Erection (Pipe); assay: Effect on papaverine- and phenoxybenzamine-induced prolonged erection (PIPE), penile length, baboons; assay type: in vivo, baboon
# Method: (§1) Six male baboons weighing between 8 kg and 12 kg were used for the experiment. The animals were sedated with ketamine and anaesthetised with intravenous pentobarbitone injected through an indwelling venous catheter. Drugs were injected into the right corpora cavornosa at the mid-third of the shaft using a 29G needle and 1 ml syringe. Blood pressure was monitored through a cannulated femoral artery connected to the transducer. A measuring tape was used to measure penile length visually from a marked point at the base of the penis to the tip of urethral orifice. Changes in penile length were recorded for a period of 100 min after injection.
# Intracavernous injection of papaverine (40 mg) or phenoxybenzamine (3 mg) which produced maximal penile length within 20 and 40 min were repeated one week later and prostaglandin A2 was given at the peak time of the turgidity.
# (§2) In baboons, intracavernous injection of papaverine (40 mg) or phenoxybenzamine (3 mg) produced a 130% increase in penile length within […] after administration (Table 1). This increase in penile length lasted for more than 100 min. This was repeated one week later and when prostaglandin A2 was injected intracavernosally at the maximum rigidity 20 min after the drug administration, the latter produced a marked reduction in penile length and within 40 min of injection, the penile size reduced to the original state of rugosity (Table 1). The fall in systemic blood pressure produced by prostaglandin A2 ranged from 8 to 16 mmHg. Each value reported in Table 1 represents the mean of six experiments.
# [2] = rat, in vivo
# Method: METHOD: Male Sprague Dawley rats (500-700 g) were anaesthetized with sodium pentobarbital (45 mg/kg, intraperitoneal) and the trachea intubated (14G jelco catheter) for respiration. The left external jugular vein and the right common carotid artery were cannulated (PE 50 tubing) for drug infusion and blood pressure monitoring respectively. Through a lower median abdominal incision, the lateral prostate was exposed and the fascia around the cavernous nerve separated through fine dissection. The exposed nerve was suspended on bipolar hook electrode for stimulation. Through transverse perineal incision, a 27G needle was inserted into the penile crus for pressure recording. Systemic and intracavernous pressures were measured by transducers (Ugo Basile) and recorded with MacLab analogue-digital converter (AD instruments). To initiate the experiment, the cavernous nerve was stimulated with square wave pulses of 1 millisecond duration at 20 Hertz and 2 volts with the resting ICP recording.
# [3] = test system: prolonged erection induced by 60 mg of papaverine; assay: Effect on papaverine-induced prolonged erection in human patients and volunteers; assay type: in vivo; settings: for Mean Decrease in Length of Turgid Penis %: erection induced by 60 mg papaverine
# Method: In human patients and human volunteers, intracavernous injection of prostaglandin A2 (150 μg) was tested on prolonged erection (lasting more than 4 hours) induced by 60 mg of papaverine.
# This was corrected by an additional injection of prostaglandin A2 (100 μg). The fall in mean systemic blood pressure ranged from 7 to 10 mmHg (Table 2).
# [4] = parameters: species or system baboon; settings: in vivo
# Method: as §1, §2
# [5] = test system: cavernous nerve stimulation-induced intracavernous pressure increase; assay: Intracavernous pressure (ICP) response to cavernous nerve stimulation, in vivo rat model; parameters: species or system Sprague Dawley rats; settings: for Cavernous pressure (mmHg) recording: nerve stimulation
# Method: The cavernous nerve is a relatively well-defined nerve that exits from the major pelvic ganglion and carries a large component of the autonomic input to the penis. Through electrical stimulation of this nerve, the changes in the peripheral neural mechanisms controlling penile erection can be observed in the animal model. The responses are recorded as concomitant alterations in the ICP following stimulation of this nerve branch.
# [6] = test system: human corpora cavernosa muscle; assay: Contractile response of human corpus cavernosum smooth muscle in vitro; assay type: cell-based
# Excerpt: FIG. 2 is a graphical representation showing contractile response of prostaglandin A2 on human corpus cavernosum smooth muscle.
# Prostaglandin A2 is 8.2 times stronger than noradrenaline in contracting human corpora cavernosa muscle in vitro and 500, 2.5 and 50 times stronger than dopamine, adrenaline and aramine, respectively (FIG. 2).
structure (smiles),measurement,setting,value
"CCCCC[C@H](O)/C=C/[C@H]1C=CC(=O)[C@@H]1C/C=C\CCCC(=O)O [AS-8, prostaglandin A2]",Mean Change in Penile Length (% of Control),"[1]; papaverine 40 mg followed by AS-8 100 μg 20 min later, 1 min after injection",32%
same,Mean Change in Penile Length (% of Control),"[1]; papaverine 40 mg followed by AS-8 100 μg 20 min later, 2 min after injection",38%
same,Mean Change in Penile Length (% of Control),"[1]; papaverine 40 mg followed by AS-8 100 μg 20 min later, 5 min after injection",65%
same,Mean Change in Penile Length (% of Control),"[1]; papaverine 40 mg followed by AS-8 100 μg 20 min later, 10 min after injection",130%
same,Mean Change in Penile Length (% of Control),"[1]; papaverine 40 mg followed by AS-8 100 μg 20 min later, 20 min after injection",142%
same,Mean Change in Penile Length (% of Control),"[1]; papaverine 40 mg followed by AS-8 100 μg 20 min later, 40 min after injection",15%
same,Mean Change in Penile Length (% of Control),"[1]; papaverine 40 mg followed by AS-8 100 μg 20 min later, 60 min after injection",0%
same,Mean Change in Penile Length (% of Control),"[1]; papaverine 40 mg followed by AS-8 100 μg 20 min later, 80 min after injection",0%
same,Mean Change in Penile Length (% of Control),"[1]; papaverine 40 mg followed by AS-8 100 μg 20 min later, 100 min after injection",0%
same,Mean Change in Penile Length (% of Control),"[1]; phenoxybenzamine 3 mg followed by AS-8 100 μg 20 min later, 1 min after injection",7%
same,Mean Change in Penile Length (% of Control),"[1]; phenoxybenzamine 3 mg followed by AS-8 100 μg 20 min later, 2 min after injection",15%
same,Mean Change in Penile Length (% of Control),"[1]; phenoxybenzamine 3 mg followed by AS-8 100 μg 20 min later, 5 min after injection",20%
same,Mean Change in Penile Length (% of Control),"[1]; phenoxybenzamine 3 mg followed by AS-8 100 μg 20 min later, 10 min after injection",38%
same,Mean Change in Penile Length (% of Control),"[1]; phenoxybenzamine 3 mg followed by AS-8 100 μg 20 min later, 20 min after injection",85%
same,Mean Change in Penile Length (% of Control),"[1]; phenoxybenzamine 3 mg followed by AS-8 100 μg 20 min later, 40 min after injection",10%
same,Mean Change in Penile Length (% of Control),"[1]; phenoxybenzamine 3 mg followed by AS-8 100 μg 20 min later, 60 min after injection",0%
same,Mean Change in Penile Length (% of Control),"[1]; phenoxybenzamine 3 mg followed by AS-8 100 μg 20 min later, 80 min after injection",0%
same,Mean Change in Penile Length (% of Control),"[1]; phenoxybenzamine 3 mg followed by AS-8 100 μg 20 min later, 100 min after injection",0%
same,time until penile size reduced to the original state of rugosity,[1]; prostaglandin A2 intracavernosally at maximum rigidity 20 min after papaverine or phenoxybenzamine,≤ 40 min
same,mean systemic blood pressure change,[2],concurrent reduction in mean systemic blood pressure
same,Mean Decrease in Length of Turgid Penis %,"[3]; Patients (2), 150 μg intracavernous, 1 min after AS-8 injection",10%
same,Mean Decrease in Length of Turgid Penis %,"[3]; Patients (2), 150 μg intracavernous, 5 min after AS-8 injection",50%
same,Mean Decrease in Length of Turgid Penis %,"[3]; Patients (2), 150 μg intracavernous, 10 min after AS-8 injection",80%
same,Mean Decrease in Length of Turgid Penis %,"[3]; Patients (2), 150 μg intracavernous, 20 min after AS-8 injection",90%
same,Mean Decrease in Length of Turgid Penis %,"[3]; Patients (2), 150 μg intracavernous, 30 min after AS-8 injection",100%
same,Mean Decrease in Length of Turgid Penis %,"[3]; Volunteers (3), 150 μg intracavernous, 1 min after AS-8 injection",10%
same,Mean Decrease in Length of Turgid Penis %,"[3]; Volunteers (3), 150 μg intracavernous, 5 min after AS-8 injection",30%
same,Mean Decrease in Length of Turgid Penis %,"[3]; Volunteers (3), 150 μg intracavernous, 10 min after AS-8 injection",75%
same,Mean Decrease in Length of Turgid Penis %,"[3]; Volunteers (3), 150 μg intracavernous, 20 min after AS-8 injection",80%
same,Mean Decrease in Length of Turgid Penis %,"[3]; Volunteers (3), 150 μg intracavernous, 30 min after AS-8 injection",95%
same,subjects with maximal reduction in rigidity and penile length to the rugose state within 30 min after injection,"[3]; patients and volunteers, erection induced by 60 mg papaverine for 4 hours or more, 150 μg intracavernous",four out of five subjects
same,relapse of tumescence after first injection,"[3]; volunteers, first injection 150 μg, corrected by additional injection of 100 μg","In one volunteer, there was a relapse of tumescence within 60 min"
same,fall in systemic blood pressure,[4],8-16 mmHg
same,prevention of intracavernous pressure increase to cavernous nerve stimulation,[5],"prevents, in a dose-dependent manner"
same,cavernous pressure elevations to subsequent nerve stimulations,"[5]; intracavernous AS-8, all the doses tested, Analysis of Variance",significantly suppressed
same,Cavernous pressure (mmHg) recording,"[5]; AS-8 1 μg intracavernous, 2 Min after, Control before 45.76 ± 1.46",26.48 ± 4.62 mmHg
same,Cavernous pressure (mmHg) recording,"[5]; AS-8 1 μg intracavernous, 5 Min after, Control before 45.76 ± 1.46",22.48 ± 3.21 mmHg
same,Cavernous pressure (mmHg) recording,"[5]; AS-8 1 μg intracavernous, 10 Min after, Control before 45.76 ± 1.46",26.94 ± 4.77 mmHg
same,Cavernous pressure (mmHg) recording,"[5]; AS-8 1 μg intracavernous, 20 Min after, Control before 45.76 ± 1.46",24.42 ± 6.87 mmHg
same,Cavernous pressure (mmHg) recording,"[5]; AS-8 1 μg intracavernous, 30 Min after, Control before 45.76 ± 1.46",22.40 ± 5.34 mmHg
same,Cavernous pressure (mmHg) recording,"[5]; AS-8 1 μg intracavernous, 30 Sec after, Control before 45.76 ± 1.46",33.83 ± 3.09 mmHg
same,Cavernous pressure (mmHg) recording,"[5]; AS-8 2 μg intracavernous, 2 Min after, Control before 40.60 ± 2.58",22.29 ± 9.96 mmHg
same,Cavernous pressure (mmHg) recording,"[5]; AS-8 2 μg intracavernous, 5 Min after, Control before 40.60 ± 2.58",26.42 ± 4.42 mmHg
same,Cavernous pressure (mmHg) recording,"[5]; AS-8 2 μg intracavernous, 10 Min after, Control before 40.60 ± 2.58",24.49 ± 7.39 mmHg
same,Cavernous pressure (mmHg) recording,"[5]; AS-8 2 μg intracavernous, 20 Min after, Control before 40.60 ± 2.58",31.84 ± 5.54 mmHg
same,Cavernous pressure (mmHg) recording,"[5]; AS-8 2 μg intracavernous, 30 Min after, Control before 40.60 ± 2.58",29.62 ± 4.62 mmHg
same,Cavernous pressure (mmHg) recording,"[5]; AS-8 2 μg intracavernous, 30 Sec after, Control before 40.60 ± 2.58",35.29 ± 3.29 mmHg
same,Cavernous pressure (mmHg) recording,"[5]; AS-8 4 μg intracavernous, 2 Min after, Control before 46.40 ± 1.59",16.07 ± 1.00 mmHg
same,Cavernous pressure (mmHg) recording,"[5]; AS-8 4 μg intracavernous, 5 Min after, Control before 46.40 ± 1.59",14.90 ± 1.71 mmHg
same,Cavernous pressure (mmHg) recording,"[5]; AS-8 4 μg intracavernous, 10 Min after, Control before 46.40 ± 1.59",15.00 ± 6.71 mmHg
same,Cavernous pressure (mmHg) recording,"[5]; AS-8 4 μg intracavernous, 20 Min after, Control before 46.40 ± 1.59",18.30 ± 6.40 mmHg
same,Cavernous pressure (mmHg) recording,"[5]; AS-8 4 μg intracavernous, 30 Min after, Control before 46.40 ± 1.59",17.05 ± 5.86 mmHg
same,Cavernous pressure (mmHg) recording,"[5]; AS-8 4 μg intracavernous, 30 Sec after, Control before 46.40 ± 1.59",25.91 ± 5.57 mmHg
same,times stronger than adrenaline in contracting human corpora cavernosa muscle,[6]; versus adrenaline,2.5 times
same,times stronger than aramine in contracting human corpora cavernosa muscle,[6]; versus aramine,50 times
same,times stronger than dopamine in contracting human corpora cavernosa muscle,[6]; versus dopamine,500 times
same,times stronger than noradrenaline in contracting human corpora cavernosa muscle,[6]; versus noradrenaline,8.2 times
